Target: Aβ42 (Homo sapiens, UniProt P05067)
Assay: Th-T (thioflavin-T) assay of Aβ42 aggregation
Format: biochemical
Settings: for Th-T assay plate reading, mean of three wells (Supplementary Fig. 47): source data, Ab alone and No Ab as controls

Chain of Aβ42 (P05067 672-713): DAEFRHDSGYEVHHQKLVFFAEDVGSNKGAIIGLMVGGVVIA

In the case of `CC(C)=CCC/C(C)=C/CC/C(C)=C/CC/C(C)=C/Cc1c(O)c(C)c(C)oc1=O` [Compound 2], the “Th-T fluorescence, mean of three wells” value (Aβ42 aggregation time course, reading M117) is reported as 2.942, the “Th-T fluorescence, mean of three wells” value (Aβ42 aggregation time course, reading M118) is reported as 2.9616 and the “Th-T fluorescence, mean of three wells” value (Aβ42 aggregation time course, reading M119) is reported as 2.929. The “Th-T fluorescence, mean of three wells” value (Aβ42 aggregation time course, reading M120) was 2.963, the “Th-T fluorescence, mean of three wells” value (Aβ42 aggregation time course, reading M121) was 2.95 and the “Th-T fluorescence, mean of three wells” value (Aβ42 aggregation time course, reading M122) was 2.943. The “Th-T fluorescence, mean of three wells” value (Aβ42 aggregation time course, reading M123) was 2.95, the “Th-T fluorescence, mean of three wells” value (Aβ42 aggregation time course, reading M124) was 2.945 and the “Th-T fluorescence, mean of three wells” value (Aβ42 aggregation time course, reading M125) was 2.938. For the same molecule, the “Th-T fluorescence, mean of three wells” value (Aβ42 aggregation time course, reading M126) was 2.934, the “Th-T fluorescence, mean of three wells” value (Aβ42 aggregation time course, reading M127) was 2.935 and the “Th-T fluorescence, mean of three wells” value (Aβ42 aggregation time course, reading M128) was 2.947. The “Th-T fluorescence, mean of three wells” value (Aβ42 aggregation time course, reading M129) was 2.9294, the “Th-T fluorescence, mean of three wells” value (Aβ42 aggregation time course, reading M130) was 2.914 and the “Th-T fluorescence, mean of three wells” value (Aβ42 aggregation time course, reading M131) was 2.934. For the same molecule, the “Th-T fluorescence, mean of three wells” value (Aβ42 aggregation time course, reading M132) was 2.934, the “Th-T fluorescence, mean of three wells” value (Aβ42 aggregation time course, reading M133) was 2.945 and the “Th-T fluorescence, mean of three wells” value (Aβ42 aggregation time course, reading M134) was 2.942. The “Th-T fluorescence, mean of three wells” value (Aβ42 aggregation time course, reading M135) was 2.931, the “Th-T fluorescence, mean of three wells” value (Aβ42 aggregation time course, reading M136) was 2.912 and the “Th-T fluorescence, mean of three wells” value (Supplementary Fig. 47, reading M137) was 2.914. The “Th-T fluorescence, mean of three wells” value (Supplementary Fig. 47, reading M138) was 2.931, the “Th-T fluorescence, mean of three wells” value (Supplementary Fig. 47, reading M139) was 2.919 and the “Th-T fluorescence, mean of three wells” value (Supplementary Fig. 47, reading M140) was 2.936. For the same molecule, the “Th-T fluorescence, mean of three wells” value (Supplementary Fig. 47, reading M141) was 2.944, the “Th-T fluorescence, mean of three wells” value (Supplementary Fig. 47, reading M142) was 2.9414 and the “Th-T fluorescence, mean of three wells” value (Supplementary Fig. 47, reading M143) was 2.941. The “Th-T fluorescence, mean of three wells” value (Supplementary Fig. 47, reading M144) was 2.932, the “Th-T fluorescence, mean of three wells” value (Supplementary Fig. 47, reading M145) was 2.925 and the “Th-T fluorescence, mean of three wells” value (Supplementary Fig. 47 source data, measurement M37 of time course) was 2.747. The “Th-T fluorescence, mean of three wells” value (Supplementary Fig. 47 source data, measurement M38 of time course) was 2.734, the “Th-T fluorescence, mean of three wells” value (Supplementary Fig. 47 source data, measurement M39 of time course) was 2.741 and the “Th-T fluorescence, mean of three wells” value (Supplementary Fig. 47 source data, measurement M40 of time course) was 2.757. The “Th-T fluorescence, mean of three wells” value (Supplementary Fig. 47 source data, measurement M41 of time course) was 2.789, the “Th-T fluorescence, mean of three wells” value (Supplementary Fig. 47 source data, measurement M42 of time course) was 2.791 and the “Th-T fluorescence, mean of three wells” value (Supplementary Fig. 47 source data, measurement M43 of time course) was 2.8204. For the same molecule, the “Th-T fluorescence, mean of three wells” value (Supplementary Fig. 47 source data, measurement M44 of time course) was 2.818, the “Th-T fluorescence, mean of three wells” value (Supplementary Fig. 47 source data, measurement M45 of time course) was 2.833 and the “Th-T fluorescence, mean of three wells” value (Supplementary Fig. 47 source data, measurement M46 of time course) was 2.86. For the same molecule, the “Th-T fluorescence, mean of three wells” value (Supplementary Fig. 47 source data, measurement M47 of time course) was 2.867, the “Th-T fluorescence, mean of three wells” value (Supplementary Fig. 47 source data, measurement M48 of time course) was 2.874 and the “Th-T fluorescence, mean of three wells” value (Supplementary Fig. 47 source data, measurement M49 of time course) was 2.883. The “Th-T fluorescence, mean of three wells” value (Supplementary Fig. 47 source data, measurement M50 of time course) was 2.863, the “Th-T fluorescence, mean of three wells” value (Supplementary Fig. 47 source data, measurement M51 of time course) was 2.8662 and the “Th-T fluorescence, mean of three wells” value (Supplementary Fig. 47 source data, measurement M52 of time course) was 2.876. For the same molecule, the “Th-T fluorescence, mean of three wells” value (Supplementary Fig. 47 source data, measurement M53 of time course) was 2.889, the “Th-T fluorescence, mean of three wells” value (Supplementary Fig. 47 source data, measurement M54 of time course) was 2.875 and the “Th-T fluorescence, mean of three wells” value (Supplementary Fig. 47 source data, measurement M55 of time course) was 2.914. For the same molecule, the “Th-T fluorescence, mean of three wells” value (Supplementary Fig. 47 source data, measurement M56 of time course) was 2.914, the “Th-T assay plate reading, mean of three wells (Supplementary Fig. 47)” value (shortened to “Th-T assay plate reading, mean”) (measurement M1) was 0.5144 and the “Th-T assay plate reading, mean” value (measurement M2) was 0.4337. The “Th-T assay plate reading, mean” value (measurement M3) was 0.4376, the “Th-T assay plate reading, mean” value (measurement M4) was 0.4602 and the “Th-T assay plate reading, mean” value (measurement M5) was 0.5047. For the same molecule, the “Th-T assay plate reading, mean” value (measurement M6) was 0.5652, the “Th-T assay plate reading, mean” value (measurement M7) was 0.6146 and the “Th-T assay plate reading, mean” value (measurement M8) was 0.6765. The “Th-T assay plate reading, mean” value (measurement M9) was 0.8275, the “Th-T assay plate reading, mean” value (measurement M10) was 1.067 and the “Th-T assay plate reading, mean” value (measurement M11) was 1.395. The “Th-T assay plate reading, mean” value (measurement M12) was 1.75, the “Th-T assay plate reading, mean” value (measurement M13) was 2.113 and the “Th-T assay plate reading, mean” value (measurement M14) was 2.291. For the same molecule, the “Th-T assay plate reading, mean” value (measurement M15) was 2.38, the “Th-T assay plate reading, mean” value (measurement M16) was 2.421 and the “Th-T fluorescence, mean of three wells” value (reading M17, Supplementary Fig. 47 source data) was 2.473. The “Th-T fluorescence, mean of three wells” value (reading M18, Supplementary Fig. 47 source data) was 2.4977, the “Th-T fluorescence, mean of three wells” value (reading M19, Supplementary Fig. 47 source data) was 2.533 and the “Th-T fluorescence, mean of three wells” value (reading M20, Supplementary Fig. 47 source data) was 2.556. For the same molecule, the “Th-T fluorescence, mean of three wells” value (reading M21, Supplementary Fig. 47 source data) was 2.585, the “Th-T fluorescence, mean of three wells” value (reading M22, Supplementary Fig. 47 source data) was 2.595 and the “Th-T fluorescence, mean of three wells” value (reading M23, Supplementary Fig. 47 source data) was 2.641. For the same molecule, the “Th-T fluorescence, mean of three wells” value (reading M24, Supplementary Fig. 47 source data) was 2.62, the “Th-T fluorescence, mean of three wells” value (reading M25, Supplementary Fig. 47 source data) was 2.6309 and the “Th-T fluorescence, mean of three wells” value (reading M26, Supplementary Fig. 47 source data) was 2.664. For the same molecule, the “Th-T fluorescence, mean of three wells” value (reading M27, Supplementary Fig. 47 source data) was 2.655, the “Th-T fluorescence, mean of three wells” value (reading M28, Supplementary Fig. 47 source data) was 2.667 and the “Th-T fluorescence, mean of three wells” value (reading M29, Supplementary Fig. 47 source data) was 2.665. For the same molecule, the “Th-T fluorescence, mean of three wells” value (reading M30, Supplementary Fig. 47 source data) was 2.687, the “Th-T fluorescence, mean of three wells” value (reading M31, Supplementary Fig. 47 source data) was 2.687 and the “Th-T fluorescence, mean of three wells” value (reading M32, Supplementary Fig. 47 source data) was 2.686. The “Th-T fluorescence, mean of three wells” value (reading M33, Supplementary Fig. 47 source data) was 2.738, the “Th-T fluorescence, mean of three wells” value (reading M34, Supplementary Fig. 47 source data) was 2.752 and the “Th-T fluorescence, mean of three wells” value (reading M35, Supplementary Fig. 47 source data) was 2.742. The “Th-T fluorescence, mean of three wells” value (reading M36, Supplementary Fig. 47 source data) was 2.736, the “Th-T fluorescence, mean of three wells” value (time course, reading M57) was 2.932 and the “Th-T fluorescence, mean of three wells” value (time course, reading M58) was 2.915. For the same molecule, the “Th-T fluorescence, mean of three wells” value (time course, reading M59) was 2.925, the “Th-T fluorescence, mean of three wells” value (time course, reading M60) was 2.927 and the “Th-T fluorescence, mean of three wells” value (time course, reading M61) was 2.927. For the same molecule, the “Th-T fluorescence, mean of three wells” value (time course, reading M62) was 2.927, the “Th-T fluorescence, mean of three wells” value (time course, reading M63) was 2.935 and the “Th-T fluorescence, mean of three wells” value (time course, reading M64) was 2.936. The “Th-T fluorescence, mean of three wells” value (time course, reading M65) was 2.95, the “Th-T fluorescence, mean of three wells” value (time course, reading M66) was 2.938 and the “Th-T fluorescence, mean of three wells” value (time course, reading M67) was 2.956. For the same molecule, the “Th-T fluorescence, mean of three wells” value (time-course reading M97, Supplementary Fig. 47 source data) was 2.938, the “Th-T fluorescence, mean of three wells” value (time-course reading M98, Supplementary Fig. 47 source data) was 2.952 and the “Th-T fluorescence, mean of three wells” value (time-course reading M99, Supplementary Fig. 47 source data) was 2.942. The “Th-T fluorescence, mean of three wells” value (time-course reading M100, Supplementary Fig. 47 source data) was 2.953, the “Th-T fluorescence, mean of three wells” value (time-course reading M101, Supplementary Fig. 47 source data) was 2.966 and the “Th-T fluorescence, mean of three wells” value (time-course reading M102, Supplementary Fig. 47 source data) was 2.943. The “Th-T fluorescence, mean of three wells” value (time-course reading M103, Supplementary Fig. 47 source data) was 2.949, the “Th-T fluorescence, mean of three wells” value (time-course reading M104, Supplementary Fig. 47 source data) was 2.951 and the “Th-T fluorescence, mean of three wells” value (time-course reading M105, Supplementary Fig. 47 source data) was 2.946. The “Th-T fluorescence, mean of three wells” value (time-course reading M106, Supplementary Fig. 47 source data) was 2.949, the “Th-T fluorescence, mean of three wells” value (time-course reading M107, Supplementary Fig. 47 source data) was 2.931 and the “Th-T fluorescence, mean of three wells” value (time-course reading M108, Supplementary Fig. 47 source data) was 2.953. For the same molecule, the “Th-T fluorescence, mean of three wells” value (time-course reading M109, Supplementary Fig. 47 source data) was 2.942, the “Th-T fluorescence, mean of three wells” value (time-course reading M110, Supplementary Fig. 47 source data) was 2.939 and the “Th-T fluorescence, mean of three wells” value (time-course reading M111, Supplementary Fig. 47 source data) was 2.961. The “Th-T fluorescence, mean of three wells” value (time-course reading M112, Supplementary Fig. 47 source data) was 2.955, the “Th-T fluorescence, mean of three wells” value (time-course reading M113, Supplementary Fig. 47 source data) was 2.9565 and the “Th-T fluorescence, mean of three wells” value (time-course reading M114, Supplementary Fig. 47 source data) was 2.9516. The “Th-T fluorescence, mean of three wells” value (time-course reading M115, Supplementary Fig. 47 source data) was 2.943 and the “Th-T fluorescence, mean of three wells” value (time-course reading M116, Supplementary Fig. 47 source data) was 2.94.

From paper PMC7156458, “Synthetic biology based construction of biological activity-related library of fungal decalin-containing diterpenoid pyrones” (Nature Communications, 2020)
